# Measured values: ChEMBL document CHEMBL2074031, “Inhibitory effects of CYP3A4 substrates and their metabolites on P-glycoprotein-mediated transport” (Eur J Pharm Sci, 2001)
# Tests used:
# Format in all cases: functional, cell-based
# [1] = target: T1, ATP-dependent translocase ABCB1 (Homo sapiens, UniProt P08183); assay: TP_TRANSPORTER: inhibition of Digoxin transepithelial transport (basal to apical) (Digoxin: 0.025 uM, Oxidized nifedipine: 50 uM) in MDR1-expressing LLC-PK1 cells; conditions: pig, llc-pk1, 50 µM
# [2] = target: T1, ATP-dependent translocase ABCB1; assay: TP_TRANSPORTER: inhibition of Daunorubicin transepithelial transport (basal to apical) (Daunorubicin: 0.035 uM, Oxidized nifedipine: 50 uM) in MDR1-expressing LLC-PK1 cells; conditions: pig, llc-pk1, 50 µM
# [3] = target: T1, ATP-dependent translocase ABCB1; assay: TP_TRANSPORTER: inhibition of Daunorubicin transepithelial transport (basal to apical)(Daunorubicin: 0.035 uM, 4-hydroxymidazolam: 50 uM) in MDR1-expressing LLC-PK1 cells; conditions: pig, llc-pk1, 50 µM
# [4] = target: T1, ATP-dependent translocase ABCB1; assay: TP_TRANSPORTER: inhibition of Digoxin transepithelial transport (basal to apical)(Digoxin: 0.025 uM, 6-hydroxyazelastine: 50 uM) in MDR1-expressing LLC-PK1 cells; conditions: pig, llc-pk1, 50 µM
# [5] = target: T1, ATP-dependent translocase ABCB1; assay: TP_TRANSPORTER: inhibition of Daunorubicin transepithelial transport (basal to apical)(Daunorubicin: 0.035 uM, 6-hydroxyazelastine: 50 uM) in MDR1-expressing LLC-PK1 cells; conditions: pig, llc-pk1, 50 µM
# [6] = target: T1, ATP-dependent translocase ABCB1; assay: TP_TRANSPORTER: inhibition of Digoxin transepithelial transport (basal to apical)(Digoxin: 0.025 uM, 6beta-hydroxytestosterone: 50 uM) in MDR1-expressing LLC-PK1 cells; conditions: pig, llc-pk1, 50 µM
# [7] = target: T1, ATP-dependent translocase ABCB1; assay: TP_TRANSPORTER: inhibition of Daunorubicin transepithelial transport (basal to apical)(Daunorubicin: 0.035 uM, 6beta-hydroxytestosterone: 50 uM) in MDR1-expressing LLC-PK1 cells; conditions: pig, llc-pk1, 50 µM
# [8] = target: T1, ATP-dependent translocase ABCB1; assay: TP_TRANSPORTER: inhibition of Digoxin transepithelial transport (basal to apical)(Digoxin: 0.025 uM, 1'-hydroxymidazolam: 50 uM) in MDR1-expressing LLC-PK1 cells; conditions: pig, llc-pk1, 50 µM
# [9] = target: T1, ATP-dependent translocase ABCB1; assay: TP_TRANSPORTER: inhibition of Daunorubicin transepithelial transport (basal to apical)(Daunorubicin: 0.035 uM, 1'-hydroxymidazolam: 50 uM) in MDR1-expressing LLC-PK1 cells; conditions: pig, llc-pk1, 50 µM
# [10] = target: T1, ATP-dependent translocase ABCB1; assay: TP_TRANSPORTER: inhibition of Digoxin transepithelial transport (basal to apical) (Digoxin: 0.025 uM) in MDR1-expressing LLC-PK1 cells
# [11] = target: T1, ATP-dependent translocase ABCB1; assay: TP_TRANSPORTER: inhibition of Daunorubicin transepithelial transport (basal to apical) (Daunorubicin: 0.035 uM) in MDR1-expressing LLC-PK1 cells
# [12] = target: T1, ATP-dependent translocase ABCB1; assay: TP_TRANSPORTER: inhibition of Digoxin transepithelial transport (basal to apical)(Digoxin: 0.025 uM, Midazolam: 50 uM) in MDR1-expressing LLC-PK1 cells; conditions: pig, llc-pk1, 50 µM
# [13] = target: T1, ATP-dependent translocase ABCB1; assay: TP_TRANSPORTER: inhibition of Daunorubicin transepithelial transport (basal to apical)(Daunorubicin: 0.035 uM, Midazolam: 50 uM) in MDR1-expressing LLC-PK1 cells; conditions: pig, llc-pk1, 50 µM
# [14] = target: T1, ATP-dependent translocase ABCB1; assay: TP_TRANSPORTER: inhibition of Daunorubicin transepithelial transport (basal to apical) (Daunorubicin: 0.035 uM, Nifedipine: 50 uM) in MDR1-expressing LLC-PK1 cells; conditions: pig, llc-pk1, 50 µM
# [15] = target: T1, ATP-dependent translocase ABCB1; assay: TP_TRANSPORTER: inhibition of Digoxin transepithelial transport (basal to apical)(Digoxin: 0.025 uM, Testosterone: 50 uM) in MDR1-expressing LLC-PK1 cells; conditions: pig, llc-pk1, 50 µM
# [16] = target: T1, ATP-dependent translocase ABCB1; assay: TP_TRANSPORTER: inhibition of Daunorubicin transepithelial transport (basal to apical)(Daunorubicin: 0.035 uM, Testosterone: 50 uM) in MDR1-expressing LLC-PK1 cells; conditions: pig, llc-pk1, 50 µM
# T1 sequence (P08183 whole entry): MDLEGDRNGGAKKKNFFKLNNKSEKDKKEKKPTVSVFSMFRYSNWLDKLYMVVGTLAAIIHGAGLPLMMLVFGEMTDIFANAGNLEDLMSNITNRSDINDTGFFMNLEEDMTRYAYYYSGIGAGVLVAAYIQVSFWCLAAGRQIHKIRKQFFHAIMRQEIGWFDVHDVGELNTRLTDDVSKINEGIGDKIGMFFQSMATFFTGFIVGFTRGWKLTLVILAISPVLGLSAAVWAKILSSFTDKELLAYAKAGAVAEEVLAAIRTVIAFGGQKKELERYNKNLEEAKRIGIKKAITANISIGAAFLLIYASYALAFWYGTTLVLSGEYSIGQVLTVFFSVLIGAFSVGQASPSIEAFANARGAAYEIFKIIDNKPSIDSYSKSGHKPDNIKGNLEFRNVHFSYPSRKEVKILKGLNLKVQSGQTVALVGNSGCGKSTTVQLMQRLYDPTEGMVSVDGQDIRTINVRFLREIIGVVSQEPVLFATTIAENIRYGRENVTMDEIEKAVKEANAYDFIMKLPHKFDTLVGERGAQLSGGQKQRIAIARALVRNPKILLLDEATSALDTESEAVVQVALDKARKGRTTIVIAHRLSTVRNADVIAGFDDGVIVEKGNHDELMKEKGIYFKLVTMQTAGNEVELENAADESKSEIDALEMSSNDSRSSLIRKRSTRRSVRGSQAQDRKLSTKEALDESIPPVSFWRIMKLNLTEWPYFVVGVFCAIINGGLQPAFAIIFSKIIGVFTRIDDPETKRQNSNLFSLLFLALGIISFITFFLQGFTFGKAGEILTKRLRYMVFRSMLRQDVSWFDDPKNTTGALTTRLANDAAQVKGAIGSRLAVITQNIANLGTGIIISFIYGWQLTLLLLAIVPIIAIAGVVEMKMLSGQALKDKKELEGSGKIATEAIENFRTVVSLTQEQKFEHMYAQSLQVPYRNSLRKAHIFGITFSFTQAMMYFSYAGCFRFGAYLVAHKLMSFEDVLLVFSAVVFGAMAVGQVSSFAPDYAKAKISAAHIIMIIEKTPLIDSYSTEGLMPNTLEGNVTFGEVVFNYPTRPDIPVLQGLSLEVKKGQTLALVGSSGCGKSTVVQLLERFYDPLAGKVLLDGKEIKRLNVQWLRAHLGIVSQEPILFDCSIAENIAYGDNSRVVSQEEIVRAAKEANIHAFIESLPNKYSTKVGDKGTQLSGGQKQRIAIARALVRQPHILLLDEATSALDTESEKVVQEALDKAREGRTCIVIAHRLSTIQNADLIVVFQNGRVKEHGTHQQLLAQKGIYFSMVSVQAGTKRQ
smiles,measurement,setting,value
COC(=O)c1c(C)nc(C)c(C(=O)OC)c1-c1ccccc1[N+](=O)[O-],Activity,[1],is not an inhibitor [-]
same,Activity,[2],is not an inhibitor [-]
Cc1ncc2n1-c1ccc(Cl)cc1C(c1ccccc1F)=NC2O (stereo not given) [4-Hydroxymidazolam],Activity,[3],is not an inhibitor [-]
CN1CCCC(N2NC(Cc3ccc(Cl)cc3)c3cc(O)ccc3C2=O)CC1 (stereo not given) [6-hydroxyazelastine],Activity,[4],is not an inhibitor [-]
same,Activity,[5],is not an inhibitor [-]
C[C@]12CC[C@H]3[C@@H](C[C@@H](O)C4=CC(=O)CC[C@@]43C)[C@@H]1CC[C@@H]2O [6beta-hydroxytestosterone],Activity,[6],is not an inhibitor [-]
same,Activity,[7],is not an inhibitor [-]
OCc1ncc2n1-c1ccc(Cl)cc1C(c1ccccc1F)=NC2 [ALPHA-HYDROXY-MIDAZOLAM],Activity,[8],is not an inhibitor [-]
same,Activity,[9],is not an inhibitor [-]
CN1CCCC(n2nc(Cc3ccc(Cl)cc3)c3ccccc3c2=O)CC1 (stereo not given) [AZELASTINE],IC50,[10],30 µM
same,IC50,[11],16 µM
CCCCc1oc2ccccc2c1C(=O)c1cc(I)c(OCCNCC)c(I)c1 [DESETHYLAMIODARONE],IC50,[10],25.2 µM
same,IC50,[11],15.4 µM
O=c1c2ccccc2c(Cc2ccc(Cl)cc2)nn1C1CCCNCC1 (stereo not given) [DESMETHYLAZELASTINE],IC50,[10],41.8 µM
same,IC50,[11],11.8 µM
Cc1ncc2n1-c1ccc(Cl)cc1C(c1ccccc1F)=NC2 [MIDAZOLAM],Activity,[12],is not an inhibitor [-]
same,Activity,[13],is not an inhibitor [-]
COC(=O)C1=C(C)NC(C)=C(C(=O)OC)C1c1ccccc1[N+](=O)[O-] [NIFEDIPINE],Activity,[14],is not an inhibitor [-]
C[C@]12CC[C@H]3[C@@H](CCC4=CC(=O)CC[C@@]43C)[C@@H]1CC[C@@H]2O [TESTOSTERONE],Activity,[15],is not an inhibitor [-]
same,Activity,[16],is not an inhibitor [-]
